From patent US10087187B2, “Imidazopyridazine derivatives as PI3KB inhibitors” (Janssen Pharmaceutica NV, priority 2014, dated 2018)
Like-named read-outs stand apart in the source and are kept apart here.

Columns and labels:
PIK3Cβ_h = PIK3Cβ_h (Homo sapiens (Human), UniProt P42338); assay: KINOMEscan enzyme binding assay, PIK3Cβ; conditions: DiscoveRx
Method: (§1) Enzyme Binding Assays (KINOMEscan®) Kinase enzyme binding affinities of compounds disclosed herein were determined using the KINOMEscan technology performed by DiscoveRx Corporation, San Diego, Calif., USA (www.kinomescan.com). Table A reports the obtained Kd values (nM), with the Kd being the inhibitor binding constant: […]

PIK3Cα_h = PIK3Cα_h (Homo sapiens (Human), UniProt P42336); assay: KINOMEscan enzyme binding assay, PIK3Cα; conditions: DiscoveRx
Sequence of PIK3Cα_h (P42336 whole entry): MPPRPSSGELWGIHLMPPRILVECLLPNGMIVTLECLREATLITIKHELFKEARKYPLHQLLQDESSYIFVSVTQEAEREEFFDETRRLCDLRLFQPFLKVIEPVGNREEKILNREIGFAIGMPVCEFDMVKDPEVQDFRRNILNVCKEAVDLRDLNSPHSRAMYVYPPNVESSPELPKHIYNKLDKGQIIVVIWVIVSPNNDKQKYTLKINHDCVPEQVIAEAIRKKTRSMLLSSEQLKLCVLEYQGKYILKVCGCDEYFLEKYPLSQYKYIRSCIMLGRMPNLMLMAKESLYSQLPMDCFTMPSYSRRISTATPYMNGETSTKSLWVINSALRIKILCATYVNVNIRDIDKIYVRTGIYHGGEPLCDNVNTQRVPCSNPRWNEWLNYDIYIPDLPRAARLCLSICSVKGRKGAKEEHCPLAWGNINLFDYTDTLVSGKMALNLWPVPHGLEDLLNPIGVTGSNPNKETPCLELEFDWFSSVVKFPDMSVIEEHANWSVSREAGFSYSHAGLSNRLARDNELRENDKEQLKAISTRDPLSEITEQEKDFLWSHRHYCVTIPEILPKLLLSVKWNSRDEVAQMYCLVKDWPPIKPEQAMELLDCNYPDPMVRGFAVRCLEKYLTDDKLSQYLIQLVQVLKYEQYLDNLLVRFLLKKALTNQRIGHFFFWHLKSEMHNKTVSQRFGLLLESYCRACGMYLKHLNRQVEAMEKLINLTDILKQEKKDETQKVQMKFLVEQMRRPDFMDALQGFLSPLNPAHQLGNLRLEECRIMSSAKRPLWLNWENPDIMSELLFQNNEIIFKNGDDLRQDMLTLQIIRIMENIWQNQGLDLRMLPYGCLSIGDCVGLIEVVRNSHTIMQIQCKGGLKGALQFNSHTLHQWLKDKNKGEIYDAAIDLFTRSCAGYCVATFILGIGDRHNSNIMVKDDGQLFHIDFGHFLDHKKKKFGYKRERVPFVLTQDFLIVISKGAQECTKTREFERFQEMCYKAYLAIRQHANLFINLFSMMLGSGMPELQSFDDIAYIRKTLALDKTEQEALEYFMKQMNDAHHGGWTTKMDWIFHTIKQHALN
Method: (§2) Enzyme Binding Assays (KINOMEscan®) Kinase enzyme binding affinities of compounds disclosed herein were determined using the KINOMEscan technology performed by DiscoveRx Corporation, San Diego, Calif., USA (www.kinomescan.com).

[1] = tested on: Akt phosphorylated at Thr308 in PC-3 cells; assay: Cellular assay: phosphorylation of Akt (Thr308) in PC-3 cells, MSD ELISA; type: cell-based; conditions: 60 min incubation with compound, read-out: IC50 pAkt_Thr308
Method: (§3) Cellular activity of PI3Kβ inhibitors was determined by quantifying the phosphorylation of Akt in PC-3 cells. Akt phosphorylated at Ser473 and Thr308 were measured using an enzyme-linked immunosorbent assay (ELISA; Meso Scale Discovery (MSD), Gaithersburg, Md.) and specific primary antibodies from MSD.
(§4) On day 1, PC3 cells (ATCC # […]) were seeded into PerkinElmer MW96 plates at 25.000 cells per well, in 75 μl complete culture medium (DMEM (Dulbecco's Modified Eagle's Medium) high glucose, AQmedia™, D0819, Sigma-Aldrich) containing 10% heat inactivated FCS (Fetal Bovine Serum) and incubated at 37° C., 5% CO2 during 24 hours. On day 2, compound or DMSO (dimethyl sulfoxide) (0.3%) was added and cells were further incubated for 60 min at 37° C., 5% CO2 in a total volume of 100 μl of medium.
(§5) The phosphoprotein assay was executed according to vendor instructions in the Phospho-Akt (Ser473) Assay Whole Cell Lysate Kit (MSD # K15100D-3) and the Phospho-Akt (Thr308) Assay Whole Cell Lysate Kit (MSD # K151DYD-3) using the lysis, blocking and wash buffer provided.
(§6) Briefly, at the end of the cell treatment period, media were removed by aspiration and adherent cells were lysed in 50 μl ice-cold lysis buffer. MSD plates are supplied pre-coated with capture antibodies for Phospho-Akt (Ser473 and Thr308). After blocking, lysates from tissue culture plates were added and plates were washed. Then, a solution containing the detection antibody (anti-total Akt conjugated with an electrochemiluminescent compound-MSD Sulfo-tag label) was added. The signals were detected using an MSD SECTOR Imager 6000 and are proportional to the phospho-Akt titres.
(§7) Data were processed. The percentage of inhibition was plotted against the log concentration of test compounds, and the sigmoidal log concentration-effect curve of best fit was calculated by nonlinear regression analysis. From these concentration-response curves, the IC50 values were calculated. Five concentrations were used for curve fitting.

MTOR_h = MTOR_h (Homo sapiens (Human), UniProt P42345); assay: KINOMEscan enzyme binding assay, MTOR; conditions: DiscoveRx
Method: as §2

PIK3Cδ_h = PIK3Cδ_h (Homo sapiens (Human), UniProt O00329); assay: KINOMEscan enzyme binding assay, PIK3Cδ; conditions: DiscoveRx
Sequence of PIK3Cδ_h (O00329 whole entry): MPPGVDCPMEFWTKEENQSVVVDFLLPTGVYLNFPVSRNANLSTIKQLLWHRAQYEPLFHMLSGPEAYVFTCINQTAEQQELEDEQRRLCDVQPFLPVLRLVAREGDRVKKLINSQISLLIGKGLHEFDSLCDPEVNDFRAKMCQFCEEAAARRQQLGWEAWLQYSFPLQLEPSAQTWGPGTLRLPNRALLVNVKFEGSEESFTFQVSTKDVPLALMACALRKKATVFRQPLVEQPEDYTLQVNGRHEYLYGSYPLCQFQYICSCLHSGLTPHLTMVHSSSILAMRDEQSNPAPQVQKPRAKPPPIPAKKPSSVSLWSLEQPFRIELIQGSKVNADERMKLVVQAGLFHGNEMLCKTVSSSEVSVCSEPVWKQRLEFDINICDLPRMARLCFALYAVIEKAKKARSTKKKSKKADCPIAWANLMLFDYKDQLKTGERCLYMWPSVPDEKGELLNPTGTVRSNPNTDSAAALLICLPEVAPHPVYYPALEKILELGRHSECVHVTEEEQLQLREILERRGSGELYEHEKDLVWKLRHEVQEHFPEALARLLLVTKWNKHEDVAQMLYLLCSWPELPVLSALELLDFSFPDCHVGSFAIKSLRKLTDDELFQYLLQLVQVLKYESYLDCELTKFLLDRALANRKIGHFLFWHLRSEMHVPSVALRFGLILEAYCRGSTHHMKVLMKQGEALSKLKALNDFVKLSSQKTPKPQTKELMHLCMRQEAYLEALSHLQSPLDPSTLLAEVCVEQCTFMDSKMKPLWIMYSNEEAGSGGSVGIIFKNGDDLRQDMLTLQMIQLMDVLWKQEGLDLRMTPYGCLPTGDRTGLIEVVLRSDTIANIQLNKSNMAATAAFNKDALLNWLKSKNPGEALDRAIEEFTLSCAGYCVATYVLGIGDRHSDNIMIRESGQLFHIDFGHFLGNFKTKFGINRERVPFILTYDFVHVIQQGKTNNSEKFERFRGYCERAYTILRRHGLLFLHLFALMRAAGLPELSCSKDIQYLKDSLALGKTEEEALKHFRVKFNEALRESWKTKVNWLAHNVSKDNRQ
Method: as §1

[2] = tested on: Akt phosphorylated at Ser473 in PC-3 cells; assay: Cellular assay: phosphorylation of Akt (Ser473) in PC-3 cells, MSD ELISA; type: cell-based; conditions: 60 min incubation with compound, read-out: IC50 pAkt_S473
Method: as §3, §4, §5, §6, §7

PIK3Cγ_h = PIK3Cγ_h (Homo sapiens (Human), UniProt P48736); assay: KINOMEscan enzyme binding assay, PIK3Cγ; conditions: DiscoveRx
Sequence of PIK3Cγ_h (P48736 whole entry): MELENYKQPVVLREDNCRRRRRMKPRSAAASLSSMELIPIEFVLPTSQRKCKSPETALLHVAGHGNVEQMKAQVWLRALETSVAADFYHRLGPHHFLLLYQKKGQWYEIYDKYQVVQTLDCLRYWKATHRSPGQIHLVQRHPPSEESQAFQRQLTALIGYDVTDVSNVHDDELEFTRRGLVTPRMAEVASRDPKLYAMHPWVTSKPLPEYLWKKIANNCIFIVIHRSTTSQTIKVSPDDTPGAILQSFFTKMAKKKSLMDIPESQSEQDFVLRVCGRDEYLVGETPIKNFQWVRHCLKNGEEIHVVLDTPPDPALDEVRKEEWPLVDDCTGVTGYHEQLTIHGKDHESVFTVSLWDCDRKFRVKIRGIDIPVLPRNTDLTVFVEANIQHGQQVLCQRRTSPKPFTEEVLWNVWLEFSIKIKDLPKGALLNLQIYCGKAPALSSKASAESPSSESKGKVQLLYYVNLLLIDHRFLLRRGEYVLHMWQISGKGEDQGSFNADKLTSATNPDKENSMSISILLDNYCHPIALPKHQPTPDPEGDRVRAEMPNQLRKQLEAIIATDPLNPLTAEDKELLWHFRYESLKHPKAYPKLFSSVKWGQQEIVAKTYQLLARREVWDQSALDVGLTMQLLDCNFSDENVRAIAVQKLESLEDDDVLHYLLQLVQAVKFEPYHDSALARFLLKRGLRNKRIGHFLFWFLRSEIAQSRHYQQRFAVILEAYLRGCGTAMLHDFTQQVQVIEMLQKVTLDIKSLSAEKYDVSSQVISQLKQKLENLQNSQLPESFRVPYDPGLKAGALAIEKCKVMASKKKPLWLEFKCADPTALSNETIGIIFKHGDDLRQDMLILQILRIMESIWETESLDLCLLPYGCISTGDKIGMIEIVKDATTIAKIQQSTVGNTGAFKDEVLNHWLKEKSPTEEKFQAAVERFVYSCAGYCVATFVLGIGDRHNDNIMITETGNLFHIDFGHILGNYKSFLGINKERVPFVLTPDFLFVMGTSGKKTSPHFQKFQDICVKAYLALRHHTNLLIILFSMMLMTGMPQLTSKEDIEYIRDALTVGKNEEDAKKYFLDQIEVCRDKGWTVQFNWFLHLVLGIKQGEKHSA
Method: as §2

Sequence of PIK3Cβ_h (P42338 whole entry): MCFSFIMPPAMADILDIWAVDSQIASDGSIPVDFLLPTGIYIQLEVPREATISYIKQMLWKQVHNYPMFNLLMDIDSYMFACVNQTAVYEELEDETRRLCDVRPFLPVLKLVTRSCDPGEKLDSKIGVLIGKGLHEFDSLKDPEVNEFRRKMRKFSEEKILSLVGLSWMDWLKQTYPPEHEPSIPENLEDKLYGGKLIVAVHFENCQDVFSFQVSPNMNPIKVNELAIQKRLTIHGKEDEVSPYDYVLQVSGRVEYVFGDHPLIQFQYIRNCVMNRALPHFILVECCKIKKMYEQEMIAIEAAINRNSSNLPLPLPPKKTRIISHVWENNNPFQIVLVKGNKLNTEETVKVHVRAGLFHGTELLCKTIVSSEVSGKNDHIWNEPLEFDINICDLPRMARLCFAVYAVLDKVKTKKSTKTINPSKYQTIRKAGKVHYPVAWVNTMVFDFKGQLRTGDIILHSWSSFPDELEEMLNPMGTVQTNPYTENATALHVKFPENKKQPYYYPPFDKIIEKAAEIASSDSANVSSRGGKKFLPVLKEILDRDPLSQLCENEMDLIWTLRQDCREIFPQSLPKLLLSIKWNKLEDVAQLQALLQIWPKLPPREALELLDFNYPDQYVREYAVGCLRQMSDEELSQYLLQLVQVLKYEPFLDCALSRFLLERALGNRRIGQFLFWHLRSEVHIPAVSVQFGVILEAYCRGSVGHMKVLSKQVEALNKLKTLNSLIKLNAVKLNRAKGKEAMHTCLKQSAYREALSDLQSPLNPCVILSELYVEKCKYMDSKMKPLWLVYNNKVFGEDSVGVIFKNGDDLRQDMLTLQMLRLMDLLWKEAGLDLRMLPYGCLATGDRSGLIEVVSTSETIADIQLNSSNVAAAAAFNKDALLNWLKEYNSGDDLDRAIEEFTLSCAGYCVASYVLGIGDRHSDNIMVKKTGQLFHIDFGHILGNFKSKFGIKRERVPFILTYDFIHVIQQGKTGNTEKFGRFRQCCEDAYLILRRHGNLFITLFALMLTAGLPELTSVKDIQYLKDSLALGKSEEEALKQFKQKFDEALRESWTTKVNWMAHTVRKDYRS

Row | Kd (PIK3Cβ_h) | Kd (PIK3Cα_h) | IC50 ([1]; Homo sapiens, PC-3, 1 h) | Kd (MTOR_h) | Kd (PIK3Cδ_h) | IC50 ([2]; Homo sapiens, PC-3, 1 h) | Kd (PIK3Cγ_h) | IC50 [1] | IC50 [2] | SMILES
1 | 0.1 nM | 6460 nM | ~60 nM | > 30200 nM | 11 nM | 85 nM | 3390 nM | – | – | Cc1nc2c(N)cc(N3CCOCC3)nn2c1Nc1cccc(C(F)(F)F)c1C1CCNCC1 [Compound 59]
2 | < 1.5 nM | 1070 nM | ~151 nM | 9330 nM | 69 nM | ~316 nM | 6170 nM | – | – | Cc1cccc(Cc2c(C)nc3c(C(=O)O)cc(N4CCOCC4)nn23)c1C [Compound 12]
3 | 4 nM | 4050 nM | 10 nM | 9370 nM | 15 nM | 18 nM | 12900 nM | – | – | Cc1nc2c(N)cc(N3CCOCC3)nn2c1Nc1cccc(C(F)(F)F)c1CN1CCOCC1 [Compound 38]
4 | 4 nM | 2040 nM | 60 nM | 20100 nM | 372 nM | 105 nM | 3900 nM | – | – | Cc1nc2c(C(N)=O)cc(N3CCOCC3)nn2c1Nc1cccc(C(F)(F)F)c1C [Compound 40]
5 | 0.7 nM | > 23000 nM | 86 nM | 2680 nM | 75 nM | 115 nM | 7480 nM | – | – | Cc1c(Cc2c(CN)nc3c(N)cc(N4CCOCC4)nn23)cccc1C(F)(F)F [Compound 85]
6 | 0.5 nM | 195 nM | 74 nM | 186 nM | 17 nM | 23 nM | 324 nM | – | – | Cc1c(Cl)cccc1Cc1c(CO)nc2c(-c3c[nH]cn3)cc(N3CCOCC3)nn12 [Compound 67]
7 | 7 nM | 1100 nM | ~43 nM | > 30200 nM | 479 nM | ~91 nM | 2000 nM | – | – | Cc1c(Cc2c(CO)nc3c(C(N)=O)cc(N4CCOCC4)nn23)cccc1C(F)(F)F [Compound 15]
8 | 5 nM | 26900 nM | 282 nM | > 30200 nM | 724 nM | > 513 nM | > 30200 nM | – | – | CCC(C)C(N)C(=O)OCc1nc2c(N)cc(N3CCOCC3)nn2c1Cc1cccc(C(F)(F)F)c1C (stereo not drawn) [Compound 81]
9 | 1.1 nM | 9550 nM | ~71 nM | 7940 nM | 105 nM | 120 nM | 15500 nM | – | – | Cc1c(Cc2c(CNCCO)nc3c(N)cc(N4CCOCC4)nn23)cccc1C(F)(F)F [Compound 3]
10 | 331 nM | > 30200 nM | ~309 nM | 8510 nM | 13800 nM | > 513 nM | 11700 nM | – | – | Cc1c(Cc2c(CO)nc3c(N)cc(N4CCOC(C)C4)nn23)cccc1C(F)(F)F (stereo not drawn) [Compound 26]
11 | 1.3 nM | > 9180 nM | – | > 5690 nM | 207 nM | – | > 8880 nM | ~38 nM | ~63 nM | Cc1c(Cc2c(CO)nc3c(N)cc(N4CCOCC4)nn23)cccc1C(F)(F)F [Compound 14]
12 | 1.3 nM | 32400 nM | ~123 nM | 25100 nM | 263 nM | 380 nM | > 30200 nM | – | – | Cc1c(Cc2c(COC(=O)C(N)C(C)C)nc3c(N)cc(N4CCOCC4)nn23)cccc1C(F)(F)F (stereo not drawn) [Compound 82]
13 | 3 nM | 661 nM | 17 nM | 1230 nM | 11 nM | 174 nM | 741 nM | – | – | Cc1nc2c(-c3cnc[nH]3)cc(N3CCOCC3)nn2c1Nc1cccc(C(F)(F)F)c1CN1CC(O)C1 [Compound 46]
14 | 2.2 nM | 575 nM | 20 nM | 3240 nM | 214 nM | 11 nM | 759 nM | – | – | Cc1c(Nc2c(CO)nc3c(C(N)=O)cc(N4CCOCC4)nn23)cccc1C(F)(F)F [Compound 37]
15 | 43 nM | 1200 nM | ~224 nM | 5890 nM | 219 nM | 257 nM | 3630 nM | – | – | Cc1nc2c(C(N)=O)cc(N3CCOCC3)nn2c1Nc1ccccc1N1CCOCC1 [Compound 87]
16 | 3.3 nM | 933 nM | ~120 nM | > 3310 nM | 74 nM | ~135 nM | 1150 nM | – | – | Cc1c(Cc2c(CNCCO)nc3c(-c4ncc[nH]4)cc(N4CCOCC4)nn23)cccc1C(F)(F)F [Compound 4]
17 | 6 nM | 17000 nM | 107 nM | > 30200 nM | 75 nM | 246 nM | > 30200 nM | – | – | Cc1nc2c(N)cc(N3CCOCC3)nn2c1Nc1cccc(F)c1CNC(C)CO (stereo not drawn) [Compound 71]
18 | 74 nM | > 30200 nM | > 382 nM | 24500 nM | 1000 nM | > 423 nM | 31600 nM | – | – | Cc1nc2c(N)cc(N3CCOCC3)nn2c1Cc1cccc(F)c1CNC(C)CO (stereo not drawn) [Compound 103]
19 | 2.4 nM | 617 nM | – | 447 nM | 58 nM | – | 479 nM | 14 nM | 42 nM | Cc1c(Cc2c(CO)nc3c(-c4c[nH]cn4)cc(N4CCOC(C)C4)nn23)cccc1C(F)(F)F (stereo not drawn) [Compound 27]
20 | 0.8 nM | 8710 nM | – | 8910 nM | 120 nM | – | 17400 nM | 45 nM | 27 nM | Cc1c(Cc2c(COC(=O)C(C)N)nc3c(N)cc(N4CCOCC4)nn23)cccc1C(F)(F)F (stereo not drawn) [Compound 79]
21 | 2.7 nM | > 30200 nM | 120 nM | 1900 nM | 166 nM | 174 nM | 3890 nM | – | – | Cc1c(F)cccc1Cc1c(CO)nc2c(N)cc(N3CCOCC3)nn12 [Compound 93]
22 | 1.2 nM | 1710 nM | – | > 30200 nM | 16 nM | – | 8680 nM | ~5 nM | ~7 nM | Cc1nc2c(N)cc(N3CCOCC3)nn2c1Nc1cccc(C(F)(F)F)c1CNC(C)CO (stereo not drawn) [Compound 56]
23 | 0.3 nM | 3240 nM | ~72 nM | > 30200 nM | 28 nM | 89 nM | 24000 nM | – | – | Cc1nc2c(N)cc(N3CCOCC3)nn2c1Nc1cccc(C(F)(F)F)c1C1CCN(CCO)CC1 [Compound 73]
24 | 0.7 nM | 339 nM | 26 nM | 6310 nM | 9 nM | 34 nM | 891 nM | – | – | Cc1nc2c(-c3c[nH]cn3)cc(N3CCOCC3)nn2c1Nc1cccc(C(F)(F)F)c1CN1CCN(C)CC1 [Compound 57]
25 | 1.1 nM | 8910 nM | > 513 nM | 776 nM | 148 nM | > 513 nM | 8130 nM | – | – | Cc1c(Cc2c(C(O)CN)nc3c(N)cc(N4CCOCC4)nn23)cccc1C(F)(F)F (stereo not drawn) [Compound 91]
26 | 14 nM | 21400 nM | > 513 nM | 18700 nM | 376 nM | > 513 nM | 13600 nM | – | – | Nc1cc(N2CCOCC2)nn2c(Cc3cccc(F)c3C3CCN(CCO)CC3)c(CO)nc12 [Compound 108]
27 | 5 nM | > 30200 nM | ~85 nM | > 30200 nM | 955 nM | 123 nM | > 30200 nM | – | – | Cc1nc2c(N)cc(N3CCOCC3)nn2c1Cc1cccc(C(F)(F)F)c1C [Compound 6]
